Measured values: publication PMC7913927, “Leishmanicidal Activity of Betulin Derivatives in Leishmania amazonensis; Effect on Plasma and Mitochondrial Membrane Potential, and Macrophage Nitric Oxide and Superoxide Production” (Microorganisms, 2021)
Where two headings read alike, the source gives them in different places.

How the values were obtained:
[1] = test system: L. (L.) braziliensis MHOM/BR/LTB300; set-up: method as in PMID 25240731; conditions: cited from earlier work
J774.1 macrophages = assay: Cytotoxicity (Alamar Blue) in macrophages; type: cell-based, murine; conditions: 72 h
Experimental: (§1) In flat-bottom 96-well culture plates, J774.1 macrophages were seeded at a cell density of 5 × 10^4 mL^−1 (10,000 macrophages/well) in 200 µL of RPMIc. After 24 h at 37 °C, 5% CO2, medium was replaced by 180 µL of RPMIc, without phenol red, and increasing concentrations of test compounds in 2-µL volumes. […] At least two independent experiments were performed in duplicate. Based on the inhibition of cell growth caused by the tested compounds, the percentage of growth inhibition compared to untreated cells was calculated. […] Selectivity indices (SI) were calculated, dividing the macrophage CC50 by the parasites GI50 (SI = CC50/GI50).

[2] = test system: L. (V.) braziliensis promastigotes, reference strain MHOM/BR/LTB300; conditions: cited from earlier work; for active concentration in L. (L.) braziliensis: reference strain MHOM/BR/LTB300
[3] = test system: L. (L.) amazonensis LTB0016 promastigotes; assay: Promastigote in vitro susceptibility (Alamar Blue/resazurin), reference strain; type: cell-based, Leishmania amazonensis; conditions: for growth inhibition / inhibition at 50 µM: LTB0016, 50 µM; for inhibition at 50 µM: read-out: growth inhibition
Experimental: The fluorometric method of Alamar Blue® (resazurin) was used. Promastigotes grown in biphasic agar-blood medium, at the exponential phase of growth, were seeded in flat-bottom 96-well culture plates, at a cell density of 1 × 10^6 parasites mL^−1 (200,000 parasites/well), in 180 µL of RPMIc without phenol red. Subsequently, either a sole concentration (50 µM), or increasing concentrations of compounds or drugs were applied, according to each treatment group, in volumes of 2 µL. Plates were kept at 26 °C, in a humid chamber, for 72 h. […] Live parasites are metabolically active and capable of reducing non-fluorescent resazurin (blue) to fluorescent resorufin (red). Fluorescence intensity is directly proportional to the number of viable cells. […] At least two independent experiments were performed in duplicate. The effect of trivalent antimonial [SbIII, potassium antimonyl tartrate trihydrate, Sigma-Aldrich, (St. Louis, MO, USA)] was included as positive control of the assay.

[4] = Cytotoxicity (Alamar Blue) in macrophages; type: cell-based, murine; conditions: mouse, J774.1 macrophages
Experimental: as §1

[5] = test system: L. (L.) amazonensis VE98MR promastigotes; assay: Promastigote in vitro susceptibility (Alamar Blue/resazurin), patient isolate VE98MR; type: cell-based, Leishmania amazonensis
Experimental: (§2) The fluorometric method of Alamar Blue® (resazurin) was used. Promastigotes grown in biphasic agar-blood medium, at the exponential phase of growth, were seeded in flat-bottom 96-well culture plates, at a cell density of 1 × 10^6 parasites mL^−1 (200,000 parasites/well), in 180 µL of RPMIc without phenol red. Subsequently, either a sole concentration (50 µM), or increasing concentrations of compounds or drugs were applied, according to each treatment group, in volumes of 2 µL. Plates were kept at 26 °C, in a humid chamber, for 72 h. Resazurin was then added (20 µL of 10% v/v), to reach a final concentration of 250 µM and plates were incubated for an additional 4 h. Live parasites are metabolically active and capable of reducing non-fluorescent resazurin (blue) to fluorescent resorufin (red). Fluorescence intensity is directly proportional to the number of viable cells. The fluorometric reading was carried out using the appropriate wavelengths (ex: 540 nm/em: 580 nm) in a spectrofluorometer Victor^2 Wallac (Perkin Elmer, Turku, Finland). At least two independent experiments were performed in duplicate. The effect of trivalent antimonial [SbIII, potassium antimonyl tartrate trihydrate, Sigma-Aldrich, (St. Louis, MO, USA)] was included as positive control of the assay.

[6] = test system: L. (L.) amazonensis VE2000MM promastigotes; assay: Promastigote in vitro susceptibility (Alamar Blue/resazurin), patient isolate VE2000MM; type: cell-based, Leishmania amazonensis
Experimental: as §2

[7] = test system: L. (L.) amazonensis LTB0016, VE98MR and VE2000MM promastigotes; assay: Plasma membrane potential (ΔΨp), bisoxonol fluorescence; type: cell-based, Leishmania amazonensis; conditions: VE2000MM promastigotes; valinomycin 1 µM
Experimental: To evaluate the plasma membrane potential (ΔΨp), the fluorescent compound, bisoxonol, bis[1,3-diethylthiobarbituric acid] trimethine oxonol, was used, as well as a method optimized by Padrón-Nieves et al.. Initially, calibration curves for each strain, using increasing concentrations of KCl (0.5 to 75 mM), were performed in the late log growth phase Leishmania promastigotes in the presence of the potassium ionophore valinomycin. By this procedure, fluorescence values could be transformed into millivolts (mV), applying the Nernst equation, ΔΨp = −59.4 log(120/[KCl]). […] After 10 min of incubation in the dark, fluorescence was measured in a Victor^2 Wallac spectrofluorometer (Perkin Elmer, Turku, Finland), using the appropriate wavelengths (ex: 540 nm/em: 580 nm). […] Once the corresponding calibration curve for each strain was obtained, the effect of compounds on the ΔΨp was evaluated. […] After 10 min of incubation in the dark, fluorescence was measured, using the appropriate wavelengths (ex: 540 nm/em: 580 nm). […] To transform the fluorescence values in millivolts (mV), calibration curves were prepared using increasing concentrations of KCl (0.5, 1.15, 2.5, 5, 10, 20, 40, and 75 mM). […]

[8] = LTB0016 promastigotes, 72 h, read-out: Promastigote (GI50) mean
[9] = J774.1 CC50 / LTB0016 promastigote GI50
[10] = Leishmania amazonensis, LTB0016 promastigotes, 72 h, read-out: Promastigote (GI50) mean

Molecule: 3,28-diformylbetulin triazolodione [Compound 26]
- inhibition of parasite migration [1]: inhibited parasite migration at nano and picomolar concentrations
- CC50 (J774.1 macrophages): 21.9 µM
- GI50 [2]: < 1 µM
- active concentration in L. (L.) braziliensis [2]: less than 10 µM
- SI CC50/GI50 [3]: 5.68
- growth inhibition [3]: at least 75%
- GI50 [3, 8]: 3.85 µM

Molecule: C=C(C)[C@@H]1CC[C@]2(CO)CC[C@]3(C)[C@H](CC[C@@H]4[C@@]5(C)CC[C@H](O)C(C)(C)[C@@H]5CC[C@]43C)[C@@H]12 [Compound 1, betulin]
- CC50 at 72 h [4]: 25.1 µM
- SI CC50/GI50 [3, 9]: 1.30
- inhibition at 50 µM ([3]; Leishmania amazonensis): ≥ 75%
- GI50 [3, 10]: 19.3 µM

Molecule: C=C(C)[C@@H]1CC[C@]2(C(=O)O)CC[C@]3(C)[C@H](CC[C@@H]4[C@@]5(C)CC[C@H](O)C(C)(C)[C@@H]5CC[C@]43C)[C@@H]12 [Compound 11, betulinic acid]
- inhibition at 50 µM ([3]; Leishmania amazonensis): 44%

Molecule: C=C(C)[C@@H]1CC[C@]2(C=O)CC[C@]3(C)[C@H](CC[C@@H]4[C@@]5(C)CC[C@H](O)C(C)(C)[C@@H]5CC[C@]43C)[C@@H]12 [Compound 12, betulinic aldehyde]
- growth inhibition [3]: 67%

Molecule: C=C(C)[C@@H]1CC[C@]2(C(=O)O)CC[C@]3(C)[C@H](CC[C@@H]4[C@@]5(C)CC[C@H](O)C(C)(C)[C@@H]5CC[C@]43C)[C@@H]12 [Compound 13]
- growth inhibition [3]: did not show enough anti-leishmanial activity

Molecule: C=C(C)[C@@H]1CC[C@]2(C(=O)O)CC[C@]3(C)[C@H](CC[C@@H]4[C@@]5(C)CCC(=O)C(C)(C)[C@@H]5CC[C@]43C)[C@@H]12 [Compound 14]
- active concentration in L. (L.) braziliensis [2]: less than 10 µM
- growth inhibition [3]: did not show enough anti-leishmanial activity

Molecule: C=C(C)C1CCC2(C=NO)CCC3(C)C(CCC4C5(C)CCC(O)C(C)(C)C5CCC43C)C12 (stereo not shown) [Compound 17]
- CC50 (J774.1 macrophages): 19.3 µM
- active concentration in L. (L.) braziliensis [2]: less than 10 µM
- SI CC50/GI50 [3, 9]: 14.23
- growth inhibition [3]: at least 75%
- GI50 [3, 8]: 1.35 µM

Molecule: [K+].[K+].[O]=[Cr](=[O])([O-])[O][Cr](=[O])(=[O])[O-] [Compound K2Cr2O7, K2Cr2O7]
- GI50 ([5]; data not detailed in the manuscript, parasite stage not stated, read-out: GI50 against K2Cr2O7, VE98MR): > 2500 µM
- GI50 ([3]; data not detailed in the manuscript, parasite stage not stated, read-out: GI50 against K2Cr2O7, LTB0016): 1060 µM
- GI50 ([6]; data not detailed in the manuscript, parasite stage not stated, read-out: GI50 against K2Cr2O7, VE2000MM): > 2500 µM

Molecule: CCCCCCCCCCCCCCCCOP(=O)([O-])OCC[N+](C)(C)C [MLF, miltefosine, reference compound]
- GI50 [3, 10]: 4.17 µM
- GI50 ([6]; Leishmania amazonensis, read-out: GI50 promastigotes VE2000MM): 5.13 µM

Molecule: O=NO [NaNO2, sodium nitrite]
- GI50 ([5]; data not detailed in the manuscript, parasite stage not stated, read-out: GI50 against NaNO2, VE98MR): 3.28 µM
- GI50 ([3]; data not detailed in the manuscript, parasite stage not stated, read-out: GI50 against NaNO2, LTB0016): 0.91 µM
- GI50 ([6]; data not detailed in the manuscript, parasite stage not stated, read-out: GI50 against NaNO2, VE2000MM): 4.79 µM

Molecule: N=C(N)c1ccc(OCCCCCOc2ccc(C(=N)N)cc2)cc1 [PNT, reference compound]
- GI50 [3, 8]: 0.93 µM

Molecule: CC(C)[C@@H]1NC(=O)[C@H](C)OC(=O)[C@@H](C(C)C)NC(=O)[C@@H](C(C)C)OC(=O)[C@H](C(C)C)NC(=O)[C@H](C)OC(=O)[C@@H](C(C)C)NC(=O)[C@@H](C(C)C)OC(=O)[C@H](C(C)C)NC(=O)[C@H](C)OC(=O)[C@@H](C(C)C)NC(=O)[C@@H](C(C)C)OC1=O [valinomycin, reference compound]
- Effect on plasma membrane potential (ΔΨp), VE2000MM [7]: not sensitive

Molecule: potassium antimonyl tartrate trihydrate [SbIII]
- GI50 ([5]; promastigotes, read-out: GI50 promastigotes VE98MR): 9.08 µM
- GI50 [3, 8]: 5.51 µM
- GI50 ([6]; promastigotes, read-out: GI50 promastigotes VE2000MM): 13.6 µM
